Data: PubChem BioAssay (NCI)
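Cells were grown in 96-well plates and exposed to each compound for 48 hours at five concentrations; endpoints were interpolated linearly between bracketing concentrations, or set to the highest concentration if not reached. GI50 is the concentration that inhibits growth by half. The concentration for full growth arrest is given as TGI.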

How the values were obtained:
Assay in all cases: NCI anticancer screen, dose series, 48 h
HL-60(TB) leukemia = tested on: HL-60(TB) leukemia
MOLT-4 leukemia = tested on: MOLT-4 leukemia
MDA-MB-435 = tested on: MDA-MB-435
A498 renal = tested on: A498 renal
HT29 colon = tested on: HT29 colon
NCI-H23 lung = tested on: NCI-H23 lung
MALME-3M melanoma = tested on: MALME-3M melanoma
PC-3 prostate = tested on: PC-3 prostate
HCT-116 colon = tested on: HCT-116 colon
DU-145 prostate = tested on: DU-145 prostate
MDA-MB-231 breast = tested on: MDA-MB-231 breast
HCT-15 colon = tested on: HCT-15 colon
SF-268 CNS = tested on: SF-268 CNS
T-47D breast = tested on: T-47D breast
SK-MEL-5 melanoma = tested on: SK-MEL-5 melanoma
MCF7 breast = tested on: MCF7 breast
MDA-MB-468 breast = tested on: MDA-MB-468 breast
HS 578T breast = tested on: HS 578T breast
CCRF-CEM leukemia = tested on: CCRF-CEM leukemia
HCC-2998 colon = tested on: HCC-2998 colon
SW-620 colon = tested on: SW-620 colon
SR leukemia = tested on: SR leukemia
NCI/ADR-RES ovarian = tested on: NCI/ADR-RES ovarian
TK-10 renal = tested on: TK-10 renal
BT-549 breast = tested on: BT-549 breast
UACC-257 melanoma = tested on: UACC-257 melanoma
CAKI-1 renal = tested on: CAKI-1 renal
A549 NSCLC = tested on: A549 NSCLC
OVCAR-3 ovarian = tested on: OVCAR-3 ovarian
SK-MEL-2 melanoma = tested on: SK-MEL-2 melanoma
UACC-62 melanoma = tested on: UACC-62 melanoma
NCI-H522 lung = tested on: NCI-H522 lung
OVCAR-5 ovarian = tested on: OVCAR-5 ovarian
OVCAR-8 ovarian = tested on: OVCAR-8 ovarian
KM12 colon = tested on: KM12 colon
ACHN renal = tested on: ACHN renal
COLO 205 colon = tested on: COLO 205 colon
EKVX NSCLC = tested on: EKVX NSCLC
HOP-62 NSCLC = tested on: HOP-62 NSCLC
OVCAR-4 ovarian = tested on: OVCAR-4 ovarian
U251 CNS = tested on: U251 CNS
K-562 leukemia = tested on: K-562 leukemia
HOP-92 NSCLC = tested on: HOP-92 NSCLC
SK-MEL-28 melanoma = tested on: SK-MEL-28 melanoma
M14 melanoma = tested on: M14 melanoma
NCI-H226 lung = tested on: NCI-H226 lung
LOX IMVI melanoma = tested on: LOX IMVI melanoma
RPMI-8226 leukemia = tested on: RPMI-8226 leukemia
RXF 393 renal = tested on: RXF 393 renal
SNB-19 CNS = tested on: SNB-19 CNS
SN12C renal = tested on: SN12C renal
UO-31 renal = tested on: UO-31 renal
786-0 renal = tested on: 786-0 renal
SF-539 CNS = tested on: SF-539 CNS
IGROV1 ovarian = tested on: IGROV1 ovarian
SNB-75 CNS = tested on: SNB-75 CNS
NCI-H460 lung = tested on: NCI-H460 lung
SK-OV-3 ovarian = tested on: SK-OV-3 ovarian
SF-295 CNS = tested on: SF-295 CNS

Work on `Cc1ccc(C(=O)C(c2c[nH]c3ccccc23)c2c[nH]c3ccccc23)cc1` yielded a GI50 (HL-60(TB) leukemia) of 6.82 µM, a TGI (HL-60(TB) leukemia) of 38.2 µM and a GI50 (MOLT-4 leukemia) of 3.95 µM. For the same compound, the TGI (MOLT-4 leukemia) was 80.4 µM, the GI50 (MDA-MB-435) was 15.1 µM and the TGI (MDA-MB-435) was 29.7 µM. It also gave a GI50 (A498 renal) of 20.5 µM, a TGI (A498 renal) of 35.9 µM and a GI50 (HT29 colon) of 6.98 µM. The TGI (HT29 colon) was 22.1 µM, the GI50 (NCI-H23 lung) was 11.5 µM and the TGI (NCI-H23 lung) was 25.9 µM. The GI50 (MALME-3M melanoma) was 16 µM, the TGI (MALME-3M melanoma) was 31.2 µM and the GI50 (PC-3 prostate) was 6.96 µM. It also gave a TGI (PC-3 prostate) of 28.3 µM, a GI50 (HCT-116 colon) of 3.76 µM and a TGI (HCT-116 colon) of 15.2 µM. It also gave a GI50 (DU-145 prostate) of 14.4 µM, a TGI (DU-145 prostate) of 27.8 µM and a GI50 (MDA-MB-231 breast) of 14.1 µM. It also gave a TGI (MDA-MB-231 breast) of 31 µM, a GI50 (HCT-15 colon) of 4.73 µM and a TGI (HCT-15 colon) of 17.6 µM. For the same compound, the GI50 (SF-268 CNS) was 10.6 µM, the TGI (SF-268 CNS) was 25.4 µM and the GI50 (T-47D breast) was 9.57 µM. The TGI (T-47D breast) was 28.4 µM, the GI50 (SK-MEL-5 melanoma) was 15.5 µM and the TGI (SK-MEL-5 melanoma) was 29.2 µM. The GI50 (MCF7 breast) was 3.77 µM, the TGI (MCF7 breast) was 15.7 µM and the GI50 (MDA-MB-468 breast) was 14.1 µM. It also gave a TGI (MDA-MB-468 breast) of 29 µM, a GI50 (HS 578T breast) of 16.6 µM and a TGI (HS 578T breast) of 47.1 µM. For the same compound, the GI50 (CCRF-CEM leukemia) was 3.02 µM, the TGI (CCRF-CEM leukemia) was > 100 µM and the GI50 (HCC-2998 colon) was 13.7 µM. It also gave a TGI (HCC-2998 colon) of 27 µM, a GI50 (SW-620 colon) of 3.55 µM and a TGI (SW-620 colon) of 13.5 µM. For the same compound, the GI50 (SR leukemia) was 11 µM, the TGI (SR leukemia) was 77.6 µM and the GI50 (NCI/ADR-RES ovarian) was 13.1 µM. It also gave a TGI (NCI/ADR-RES ovarian) of 32.2 µM, a GI50 (TK-10 renal) of 24.8 µM and a TGI (TK-10 renal) of 40.6 µM. The GI50 (BT-549 breast) was 12.8 µM, the TGI (BT-549 breast) was 26.5 µM and the GI50 (UACC-257 melanoma) was 13.2 µM. For the same compound, the TGI (UACC-257 melanoma) was 26.8 µM, the GI50 (CAKI-1 renal) was 9.39 µM and the TGI (CAKI-1 renal) was 21.4 µM. For the same compound, the GI50 (A549 NSCLC) was 15 µM, the TGI (A549 NSCLC) was 33.1 µM and the GI50 (OVCAR-3 ovarian) was 11.3 µM. It also gave a TGI (OVCAR-3 ovarian) of 23.6 µM, a GI50 (SK-MEL-2 melanoma) of 14.5 µM and a TGI (SK-MEL-2 melanoma) of 28.7 µM. It also gave a GI50 (UACC-62 melanoma) of 13.9 µM, a TGI (UACC-62 melanoma) of 27.9 µM and a GI50 (NCI-H522 lung) of 10.7 µM. It also gave a TGI (NCI-H522 lung) of 24.1 µM, a GI50 (OVCAR-5 ovarian) of 14.7 µM and a TGI (OVCAR-5 ovarian) of 29 µM. It also gave a GI50 (OVCAR-8 ovarian) of 16.7 µM, a TGI (OVCAR-8 ovarian) of 34.1 µM and a GI50 (KM12 colon) of 16.7 µM. The TGI (KM12 colon) was 31.1 µM, the GI50 (ACHN renal) was 10.9 µM and the TGI (ACHN renal) was 22.8 µM. It also gave a GI50 (COLO 205 colon) of 17.1 µM, a TGI (COLO 205 colon) of 33 µM and a GI50 (EKVX NSCLC) of 13.7 µM. It also gave a TGI (EKVX NSCLC) of 27 µM, a GI50 (HOP-62 NSCLC) of 18 µM and a TGI (HOP-62 NSCLC) of 42.1 µM. It also gave a GI50 (OVCAR-4 ovarian) of 13.2 µM, a TGI (OVCAR-4 ovarian) of 28.2 µM and a GI50 (U251 CNS) of 15.9 µM. For the same compound, the TGI (U251 CNS) was 30.9 µM, the GI50 (K-562 leukemia) was 3.88 µM and the TGI (K-562 leukemia) was > 100 µM. The GI50 (HOP-92 NSCLC) was 16.3 µM, the TGI (HOP-92 NSCLC) was 33.3 µM and the GI50 (SK-MEL-28 melanoma) was 14.5 µM. The TGI (SK-MEL-28 melanoma) was 28.1 µM, the GI50 (M14 melanoma) was 12.6 µM and the TGI (M14 melanoma) was 29.1 µM. The GI50 (NCI-H226 lung) was 13.8 µM, the TGI (NCI-H226 lung) was 29.4 µM and the GI50 (LOX IMVI melanoma) was 3.21 µM. For the same compound, the TGI (LOX IMVI melanoma) was 13.8 µM, the GI50 (RPMI-8226 leukemia) was 8.31 µM and the TGI (RPMI-8226 leukemia) was > 100 µM. For the same compound, the GI50 (RXF 393 renal) was 12.5 µM, the TGI (RXF 393 renal) was 29.6 µM and the GI50 (SNB-19 CNS) was 16.9 µM. The TGI (SNB-19 CNS) was 31.4 µM, the GI50 (SN12C renal) was 11.1 µM and the TGI (SN12C renal) was 24.2 µM. The GI50 (UO-31 renal) was 11.3 µM, the TGI (UO-31 renal) was 23.4 µM and the GI50 (786-0 renal) was 12.9 µM. The TGI (786-0 renal) was 29.1 µM, the GI50 (SF-539 CNS) was 15.2 µM and the TGI (SF-539 CNS) was 29 µM. It also gave a GI50 (IGROV1 ovarian) of 11.7 µM, a TGI (IGROV1 ovarian) of 26.5 µM and a GI50 (SNB-75 CNS) of 7.91 µM. For the same compound, the TGI (SNB-75 CNS) was 21 µM, the GI50 (NCI-H460 lung) was 11.2 µM and the TGI (NCI-H460 lung) was 28.7 µM. The GI50 (SK-OV-3 ovarian) was 15.9 µM, the TGI (SK-OV-3 ovarian) was 33 µM and the GI50 (SF-295 CNS) was 14.8 µM. For the same compound, the TGI (SF-295 CNS) was 28.1 µM.
